Experimental data: US10138254B2, “Bicyclic compounds as pest control agents” (BAYER CROPSCIENCE AKTIENGESELLSCHAFT, priority 2014, dated 2018)
Like-named read-outs stand apart in the source and are kept apart here.

Assays:
[1] = log P by HPLC on reversed-phase (C18) columns, OECD Guideline 117; format: physicochemical; conditions: for chromatographic logP: reversed-phase (C18) HPLC column
Protocol: The log P values were determined in accordance with OECD Guideline 117 (EC Directive 92/69/EEC) by HPLC (high-performance liquid chromatography) using reversed-phase (RP) columns (C18), by the following methods: [a] The LC-MS determination in the acidic range is carried out at pH 2.7 with 0.1% aqueous formic acid and acetonitrile (contains 0.1% formic acid) as eluents; linear gradient from 10% acetonitrile to 95% acetonitrile. [b] LC-MS determination in the neutral range is effected at pH 7.8 with 0.001 molar aqueous ammonium hydrogencarbonate solution and acetonitrile as eluents; linear gradient from 10% acetonitrile to 95% acetonitrile. Calibration is carried out using unbranched alkan-2-ones (having 3 to 16 carbon atoms) with known log P values (log P values determined on the basis of the retention times by linear interpolation between two successive alkanones).

[2] = tested on: green peach aphid (Myzus persicae); assay: Myzus persicae spray test (Chinese cabbage leaf discs); format: in vivo; conditions: application rate 500 g/ha, after 6 days, 100% = all aphids killed; for pest or weed control at 500 g/ha: Myzus persicae, foliar, 144 h, read-out: efficacy
Protocol: Myzus persicae—Spray Test Solvent: 78 parts by weight of acetone • • 1.5 parts by weight of dimethylformamide Emulsifier: alkylaryl polyglycol ether To produce a suitable active ingredient formulation, 1 part by weight of active ingredient is dissolved with the specified parts by weight of solvent and made up with water containing an emulsifier concentration of 1000 ppm until the desired concentration is attained. To produce further test concentrations, the formulation is diluted with emulsifier-containing water. Discs of Chinese cabbage leaves (Brassica pekinensis) infested by all stages of the green peach aphid (Myzus persicae) are sprayed with an active ingredient formulation of the desired concentration. After 6 days, the efficacy in % is determined. 100% means that all the aphids have been killed; 0% means that no aphids have been killed.

[3] = tested on: greenhouse red spider mite (Tetranychus urticae); assay: Tetranychus urticae spray test, OP-resistant (bean leaf discs); format: in vivo; conditions: application rate 500 g/ha, after 6 days, 100% = all spider mites killed
Protocol: Tetranychus urticae—Spray Test, OP-Resistant
Solvent: 78.0 parts by weight of acetone • • 1.5 parts by weight of dimethylformamide
Emulsifier: alkylaryl polyglycol ether
To produce a suitable active ingredient formulation, 1 part by weight of active ingredient is dissolved with the specified parts by weight of solvent and made up with water containing an emulsifier concentration of 1000 ppm until the desired concentration is attained. To produce further test concentrations, the formulation is diluted with emulsifier-containing water.
Discs of bean leaves (Phaseolus vulgaris) infested with all stages of the greenhouse red spider mite (Tetranychus urticae) are sprayed with an active ingredient formulation of the desired concentration.
After 6 days, the efficacy in % is determined. 100% means that all the spider mites have been killed; 0% means that no spider mites have been killed.

[4] = acidic range, pH 2.7, 0.1% aqueous formic acid and acetonitrile, read-out: LogP[a]
[5] = neutral range, pH 7.8, 0.001 molar aqueous ammonium hydrogencarbonate and acetonitrile, read-out: logP[b]
[6] = neutral range, pH 7.8, 0.001 molar aqueous ammonium hydrogencarbonate and acetonitrile
[7] = acidic range, pH 2.7, 0.1% aqueous formic acid and acetonitrile

Compound	chromatographic logP [1, 4]	chromatographic logP [1, 5]	logP[b] [1, 6]	LogP[a] [1, 7]	pest or weed control at 500 g/ha [2] [%]	also measured
Cc1ccccc1-c1cnc2nc(-c3cccnc3)sc2c1 [Example 2, 6-(2-Methylphenyl)-2-(pyridin-3-yl)[1,3]thiazolo[4,5-b]pyridine]	2.76	2.8	–	–	100	–
CC[S+]([O-])c1ccccc1-c1cnc2nc(-c3ccc[n+]([O-])c3)sc2c1 (stereo not shown) [Example 16, 6-[2-(Ethylsulphinyl)phenyl]-2-(1-oxidopyridin-3-yl)[1,3]thiazolo[4,5-b]pyridine]	1.86	1.87	–	–	90	–
Cc1cc(C)c([S+]([O-])CC(F)(F)F)cc1-c1cnc2nc(-c3cccnc3)sc2c1 (stereo not shown) [Example 20, 6-{2,4-Dimethyl-5-[(2,2,2-trifluoroethyl)sulphinyl]phenyl}-2-(pyridin-3-yl)[1,3]thiazolo[4,5-b]pyridine]	2.54	2.52	–	–	90	–
CCSc1ccccc1-c1cnc2nc(-c3cccnc3)sc2c1 [Example 14, 6-[2-(Ethylsulphanyl)phenyl]-2-(pyridin-3-yl)[1,3]thiazolo[4,5-b]pyridine]	3.12	3.13	–	–	–	–
CCSc1cccc(-c2cnc3nc(-c4cccnc4)sc3c2)c1 [Example 10]	–	–	3.36	–	–	–
Cc1cc(F)c(-c2cnc3nc(-c4cccnc4)sc3c2)cc1[S+]([O-])CC(F)(F)F (stereo not shown) [Example 23, 6-{2-Fluoro-4-methyl-5-[(2,2,2-trifluoroethyl)sulphinyl]phenyl}-2-(pyridin-3-yl)[1,3]thiazolo[4,5-b]pyridine]	2.5	2.46	–	–	90	–
Clc1ccccc1-c1cnc2nc(-c3cccnc3)sc2c1 [Example 6]	–	–	2.78	2.77	–	efficacy [2]: 100%
Fc1ccccc1-c1cnc2nc(-c3cccnc3)sc2c1 [Example 5]	–	–	2.54	2.51	–	–
Cc1ccc(-c2cnc3nc(-c4cccnc4)sc3c2)cc1[S+]([O-])CC(F)(F)F (stereo not shown) [Example 18]	–	–	2.34	2.4	–	efficacy [2]: 90%
Clc1ccc(-c2cnc3nc(-c4cccnc4)sc3c2)cc1 [Example 8]	–	–	3.03	2.98	–	–
Clc1cccc(-c2cnc3nc(-c4cccnc4)sc3c2)c1 [Example 7, 6-(3-Chlorophenyl)-2-(pyridin-3-yl)[1,3]thiazolo[4,5-b]pyridine]	2.98	3.01	–	–	100	–
Cc1cc(C)c(-c2cnc3nc(-c4cccnc4)sc3c2)cc1SCC(F)(F)F [Example 19, 6-{2,4-Dimethyl-5-[(2,2,2-trifluoroethyl)sulphanyl]phenyl}-2-(pyridin-3-yl)[1,3]thiazolo[4,5-b]pyridine]	3.97	3.95	–	–	100	–
CC[S+]([O-])c1ccc(-c2cnc3nc(-c4ccc[n+]([O-])c4)sc3c2)cc1 (stereo not shown) [Example 13]	–	–	1.85	1.85	–	efficacy [2]: 90%
Cc1ccc(-c2cnc3nc(-c4cccnc4)sc3c2)cc1SCC(F)(F)F [Example 17]	–	–	3.68	3.74	–	efficacy [2]: 90%
Cc1cccc(-c2cnc3nc(-c4cccnc4)sc3c2)c1 [Example 3]	–	–	2.95	2.91	–	–
CC[S+]([O-])c1ccccc1-c1cnc2nc(-c3cccnc3)sc2c1 (stereo not shown) [Example 15, 6-[2-(Ethylsulphinyl)phenyl]-2-(pyridin-3-yl)[1,3]thiazolo[4,5-b]pyridine]	1.58	1.59	–	–	–	–
c1ccc(Nc2cnc3nc(-c4cccnc4)sc3c2)cc1 [Example 24]	–	–	2.27	2.25	–	–
Cc1ccc(-c2cnc3nc(-c4cccnc4)sc3c2)cc1 [Example 4]	–	–	2.96	2.91	–	efficacy [2]: 100%
CSc1cccc(-c2cnc3nc(-c4cccnc4)sc3c2)c1 [Example 9]	–	–	2.96	–	–	efficacy [2]: 100%
CCSc1ccc(-c2cnc3nc(-c4cccnc4)sc3c2)cc1 [Example 11]	–	–	3.37	3.34	–	–
Cc1cc(F)c(-c2cnc3nc(-c4cccnc4)sc3c2)cc1SCC(F)(F)F [Example 22, 6-{2-Fluoro-4-methyl-5-[(2,2,2-trifluoroethyl)sulphanyl]phenyl}-2-(pyridin-3-yl)[1,3]thiazolo[4,5-b]pyridine]	3.83	3.78	–	–	100	efficacy [3]: 90%
c1ccc(-c2cnc3nc(-c4cccnc4)sc3c2)cc1 [Example 1]	–	–	2.56	2.47	–	–
CC[S+]([O-])c1ccc(-c2cnc3nc(-c4cccnc4)sc3c2)cc1 (stereo not shown) [Example 12]	–	–	1.86	1.58	–	–

Now from value to molecule, other results behind:

chromatographic logP [1, 4]	chromatographic logP [1, 5]	logP[b] [1, 6]	LogP[a] [1, 7]	Compound	pest or weed control at 500 g/ha [2] [%]	also measured
1.39	–	–	–	CSCCNC(=O)c1cnc2nc(-c3cccnc3)sc2c1 [Example 52, N-[2-(Methylsulphanyl)ethyl]-2-(pyridin-3-yl)[1,3]thiazolo[4,5-b]pyridine-6-carboxamide]	–	–
–	1.95	–	–	Brc1cnc2nc(-c3cccnc3)sc2c1 [I-a-1, 6-bromo-2-(pyridin-3-yl)[1,3]thiazolo[4,5-b]pyridine]	–	–
3.53	–	–	–	O=C(Nc1cccc(SC(F)(F)F)c1)c1cnc2nc(-c3cncc(F)c3)sc2c1 [Example 57, 2-(5-Fluoropyridin-3-yl)-N-{3-[(trifluoromethyl)sulphanyl]phenyl}[1,3]thiazolo[4,5-b]pyridine-6-carboxamide]	–	–
–	1.62	–	–	c1cncc(-c2nc3ncc(-n4cccn4)cc3s2)c1 [Example 26, 6-(1H-Pyrazol-1-yl)-2-(pyridin-3-yl)[1,3]thiazolo[4,5-b]pyridine]	90	–
–	2.57	–	–	FC(F)(F)c1ccn(-c2cnc3nc(-c4cccnc4)sc3c2)n1 [Example 27]	–	–
2.54	–	–	–	O=C(Nc1cccc([S+]([O-])C(F)(F)F)c1)c1cnc2nc(-c3cncc(F)c3)sc2c1 (stereo not shown) [Example 58, 2-(5-Fluoropyridin-3-yl)-N-{3-[(trifluoromethyl)sulphinyl]phenyl}[1,3]thiazolo[4,5-b]pyridine-6-carboxamide]	–	–
–	–	1.07	1.00	Cn1cnn(-c2cnc3nc(-c4cccnc4)sc3c2)c1=S [Example 29]	–	–
0.97	1.21	–	–	Cc1nn(-c2cnc3nc(-c4cccnc4)sc3c2)c(=S)n1C [Example 31, 4,5-Dimethyl-2-[2-(pyridin-3-yl)[1,3]thiazolo[4,5-b]pyridin-6-yl]-2,4-dihydro-3H-1,2,4-triazole-3-thione]	90	–
2.66	2.69	–	–	Clc1cccc(Nc2cnc3nc(-c4cccnc4)sc3c2)c1 [Example 25, N-(3-Chlorophenyl)-2-(pyridin-3-yl)[1,3]thiazolo[4,5-b]pyridin-6-amine]	90	–
0.84	–	–	–	CS(=O)(=O)CCNC(=O)c1cnc2nc(-c3cccnc3)sc2c1 [Example 54, N-[2-(Methylsulphonyl)ethyl]-2-(pyridin-3-yl)[1,3]thiazolo[4,5-b]pyridine-6-carboxamide]	–	–
–	–	2.53	2.48	FC(F)(F)c1cnn(-c2cnc3nc(-c4cccnc4)sc3c2)c1 [Example 28]	–	–
1.23	1.42	–	–	Cc1nn(-c2cnc3nc(-c4cccnc4)sc3c2)c(=O)n1C [Example 30, 4,5-Dimethyl-2-[2-(pyridin-3-yl)[1,3]thiazolo[4,5-b]pyridin-6-yl]-2,4-dihydro-3H-1,2,4-triazol-3-one]	100	–
